We go through four compounds from patent publication US12128099B2 (priority 2018, dated 2024).

Where “and” joins values, the source holds several entries; their conditions need not be identical. Equal entries are not always repeated. Where two headings read alike, the source gives them in different places.

In one series the test system is ID8 disseminated tumor. Also noted: species or system mice. The following applies: mouse, in vivo.
Series [1] has as its system primary OC cells (OvCa-2a and OvCa-26). Type of series: cell-based, human.
The subject of the next series is OvCa-2a. The series can be described thus: cells. Type of series: cell-based, human. Particulars: read-out: calculated IC50.
The next series concerns murine OC ID8 cells. The series is classed as cell-based.
The next series has as its system SKOV3. Briefly: cells. The series is classed as cell-based, human.
The test system of the next series is OvCa-26. Briefly: cells. The series is classed as cell-based, human. Particulars: read-out: calculated IC50.
Another series deals with THP-1 SAMD9 KD cells. The series is classed as cell-based, human. Particulars: FIGS. 15A-15D, 16C.
In series [2] the test system is OC patient ascites-associated CD14+ monocytes.

For orientation: IC50 means the concentration that gives 50% inhibition. As to `N.N.[Cl][Pt][Cl]` [cisplatin], the Median survival in the series on ID8 disseminated tumor is 113 days and 127 days. The same compound registered a median survival time in the series with ID8 disseminated tumor of 90 days. Moreover, in the series with ID8 disseminated tumor, the survival is 40%. Also, the “growth inhibition, drug treatment alone” value in series [1] was “did not observe significant growth inhibition”. The IC50 with OvCa-2a was 3.6 µM; in the series on murine OC ID8 cells, 2 µM; in the series on SKOV3 (read-out: IC50), 8.4 µM; in the series on OvCa-26, 11.4 µM. The “MYXV DNA replication” value with MYXV is “inhibits DNA replication of MYXV”.
For `Nc1nc2c(ncn2[C@@H]2O[C@@H]3COP(=O)(O)O[C@H]4[C@@H](O)[C@H](n5cnc6c(N)ncnc65)O[C@@H]4COP(=O)(O)O[C@@H]2[C@@H]3O)c(=O)[nH]1` [2′3′-cGAMP], in the series on THP-1 SAMD9 KD cells, the “IFNβ / ISG mRNA in SAMD9 KD cells versus control cells” value is “comparably to control cells”.
Consider `O=[N+]([O-])c1ccc2c(c1)S(=O)(=O)C=C2` [Stattic], for which, in series [2], the IL-8 level entry is “unchanged levels of IL-8”; the “cytokine secretion (IL-10, IL-6)” value is recorded as “suppressive effect in cytokine secretion”; the toxicity entry was “did not cause noticeable toxicity”.
`Nc1ccn([C@@H]2O[C@H](CO)[C@@H](O)C2(F)F)c(=O)n1` [gemcitabine] came in with a median survival time in the series on ID8 disseminated tumor of 78 days. Also, in the series with ID8 disseminated tumor, the “therapeutic benefit, single-agent treatment given late” value was “did not lead to significant therapeutic benefit”. Also, in series [1], the “growth inhibition, drug treatment alone” value is recorded as “did not observe significant growth inhibition”. In addition, the IC50 with OvCa-2a (Homo sapiens) is 960 µM; in the series on SKOV3 (Homo sapiens, SK-OV-3), 9.32 µM; in the series with OvCa-26 (Homo sapiens), 14.6 µM.
